# Laboratory results as given in US20240122875A1, “USE OF MITOXANTRONE HYDROCHLORIDE LIPOSOME” (CSPC ZHONGQI PHARMACEUTICAL TECHNOLOGY (SHIJIAZHUANG) CO., …, priority 2021, published 2024).
# Counter-ions that a name gives are not always drawn.
# Test system: recurrent/metastatic breast cancer
# Experiment: Inventor's previous clinical research, monotherapy of recurrent/metastatic breast cancer, liposome versus ordinary injection
# Type: in vivo, human
# Details: control group, 14 mg/m^2 every 4 weeks
# Protocol: The inventor's previous clinical research included mitoxantrone hydrochloride monotherapy in the treatment of recurrent/metastatic breast cancer. There were 30 cases in the experimental group and the control group respectively. […] The control group was given mitoxantrone hydrochloride injection in 14 mg/m^2, every 4 weeks as a cycle.
structure (smiles),measurement,setting,value
"O=C1c2c(O)ccc(O)c2C(=O)c2c(NCCNCCO)ccc(NCCNCCO)c21 [mitoxantrone hydrochloride injection, mitoxantrone hydrochloride]",ORR,2/30,6.7%
same,DCR,9/30,30%
same,PR,30 cases,2 cases
